Source: patent publication US20250108038A1 (priority 2023, published 2025)
Where “and” joins values, the source holds several entries; their conditions need not be identical. Equal entries are not always repeated. Entries after “also recorded” stand apart in the source; their conditions may differ. Structures can show the parent of a compound that is named as a salt. Where two headings read alike, the source gives them in different places.

Columns and labels:
[1] = test system: orexin/tTA; Tet-O diphtheria toxin A mice (DTA mice); assay type: in vivo, mouse; conditions: for cataplexy (C) time: Compound I-19 0.3, 1, 3 mg/kg i.p., Compound I-4 0.3, 1, 3 mg/kg p.o., Des 5 mg/kg p.o.; for REM time: same doses; for latency to REM: vehicle about 100 min
Long Evans rats = test: Time-restricted (deprivation-induced) feeding, food intake; assay type: in vivo, Long Evans rat; conditions: for Food Consumption, AVG / Food Consumption: 2 h feeding; for Food Consumption, AVG: average of 12 animals; for Food Consumption: individual animals LT-1 to LT-12; for food intake (2 h feeding period): rat, in vivo
Experimental: Food consumption was limited to 2 h/day and so was motivated by hunger caused by 22 h food deprivation. Water was freely available 24 h/day.
Specifically, 12 male Long-Evans rats were food-deprived for 22 h with a 2 h feeding period each day. Rats were trained to consume daily food during the 2 h period over 25 days. The testing phase was initiated once the rats consistently consumed 16-18 g of food per day with ≤10% variance in amount of feed consumed. Feeding took place in designated individual boxes in a quiet room separate from the housing room. Continuous remote monitoring via video camera during feeding was used to assess the BSS. Food consumption was measured by weighing the total available food before and after the 2 h feeding window, correcting for spillage. Lorcaserin (1 mg/kg) was included as a reference control (Higgins et al, 2011, Neuropsychopharmacology. 37(5): 1177-1191). Subjects were tested using a repeated-measures, Latin square design with 2-3 days wash-out between treatment cycles.
Drug was administered at a volume of 1 mL/kg, intraperitoneal (IP). […]: 0.1, 0.3, 1, 3 mg/kg. There was a pretreatment time of 30 minutes.
Drug was administered at a volume of 1 mL/kg, subcutaneous (SC) route. One dose was tested: 1 mg/kg (expressed as base). There was a pretreatment time of 10 minutes.
Following a five day period of familiarization to the test facility, animals were placed on a restricted diet regimen, in which they were allotted approximately 40 g of standard laboratory chow once per day (between 10:00 h and 14:00 h). Rats were trained to consume the daily food (approximately 16-18 g of feed consumed) over a 2 h period. Daily food intakes were stable by study Day 25, with the quantity of feed consumed varying by ≤10% per day. Water was available ad-libitum. Subjects were pair-housed for the duration of the study and were maintained on a 12 h/12 h light/dark cycle with all testing conducted during the animals' light cycle. All animal use procedures were performed in accordance with the principles of the Canadian Council on Animal Care (CCAC).
Feed was measured using a certified scale according to standard operating procedures prior to testing. Residual feed was weighed following completion of the 2 h feeding window to track total intake (g).
Compound I-19 and Lorcaserin were prepared fresh on each test day. Test article was suspended in 0.8% DMSO, 6% PEG400, and 93.2% HβCD (6% in H2O) and sonicated until fully dissolved. […] Pretreatment time (ptt) was 30 minutes prior to commencement of testing. Lorcaserin was dissolved in 0.9% saline and administered via the subcutaneous route with a dose volume of 1 mL/kg with a ppt of 10 minutes.
The primary measure from the BSS test was total measured food intake (g), expressed as mean+SEM. Data were analysed by repeated-measures ANOVA (with treatment as a factor) (Statistica Version 11, Statsoft Inc. [2012]). Planned post-hoc comparisons were made in the event of a significant main effect using Dunnett's test. Significance was set at P<0.05.

OATP1B1 = molecular target: T1, OATP1B1 (Homo sapiens, UniProt Q9Y6L6); test: Uptake transporter inhibition assay, OATP1B1 (estradiol-17-β-glucuronide); conditions: for Maximum % inhibition: OATP1B1, HEK293 cells, E217βG (1 μM), NIO: no inhibition observed
T1 sequence (Q9Y6L6 1-691): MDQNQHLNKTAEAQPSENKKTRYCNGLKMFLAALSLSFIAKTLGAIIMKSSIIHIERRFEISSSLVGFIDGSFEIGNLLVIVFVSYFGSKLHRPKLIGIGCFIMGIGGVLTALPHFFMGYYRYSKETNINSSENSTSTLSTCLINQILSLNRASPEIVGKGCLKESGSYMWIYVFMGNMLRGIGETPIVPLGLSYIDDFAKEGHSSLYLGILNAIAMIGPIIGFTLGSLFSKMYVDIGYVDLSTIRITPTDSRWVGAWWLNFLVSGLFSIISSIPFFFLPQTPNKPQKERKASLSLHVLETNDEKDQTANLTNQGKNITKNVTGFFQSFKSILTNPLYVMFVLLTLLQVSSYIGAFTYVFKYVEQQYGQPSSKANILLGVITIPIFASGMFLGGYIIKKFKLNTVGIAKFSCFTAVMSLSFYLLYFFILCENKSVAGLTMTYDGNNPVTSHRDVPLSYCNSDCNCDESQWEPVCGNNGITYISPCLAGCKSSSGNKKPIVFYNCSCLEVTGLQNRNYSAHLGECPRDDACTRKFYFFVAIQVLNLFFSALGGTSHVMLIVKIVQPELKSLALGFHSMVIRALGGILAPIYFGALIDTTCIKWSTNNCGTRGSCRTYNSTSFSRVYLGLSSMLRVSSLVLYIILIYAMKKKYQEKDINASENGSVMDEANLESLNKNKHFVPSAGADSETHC
Experimental: Uptake experiments were performed using HEK293 cells stably expressing the respective uptake transporters. The assays were conducted according to the actual SOLVO uptake transporter assay protocols (PR-ASY-UPT-General Protocol for Uptake Transporter Inhibition Assays).
Cells were cultured at 37° C. in a humidified atmosphere containing 5% CO2 and were plated onto standard 96-well tissue culture plates.
Before the experiment, the medium was removed, and the cells were washed twice with 100 μL of pre-warmed (37° C.) assay buffer listed in Table 15. The cells were pre-incubated at 37° C. for 30 minutes in assay buffer containing the test article at appropriate concentrations (Table 16), appropriate solvents for solvent controls and the reference inhibitor for reference inhibitor wells. After the pre-incubation step solutions were removed. Uptake experiments were performed at 37° C. in 50 μL of assay buffer containing the probe substrate and the test article or solvent and controls.
After the experiment, cells were washed twice with 100 μL of appropriate cold buffer and lysed with 150 μL scintillation cocktail. Radiolabeled probe substrate transport was determined by liquid scintillation counting.
Uptake of the probe substrate in control cells provided background activity values for all data points.

[2] = 2-concentration assay, up to 100 μM (Compound A up to 30 μM)
[3] = 0.14 μM nominal, 0.09 μM NSB corrected, follow-up assay
[4] = 1.24 μM nominal, 0.86 μM NSB corrected, follow-up assay
[5] = 10.00 μM nominal, 6.60 μM NSB corrected
[6] = 11.11 μM nominal, 7.89 μM NSB corrected, follow-up assay
[7] = 33.33 μM nominal, 24.33 μM NSB corrected, follow-up assay
[8] = 100.00 μM nominal, 77.00 μM NSB corrected
[9] = 100.00 μM nominal, 100.00 μM NSB corrected, follow-up assay
[10] = […] nominal, 1.89 μM NSB corrected, follow-up assay
[11] = last 6 h of the dark period (ZT19-ZT24)

Compound: COCCOC1(c2ccc(Cl)cc2)c2ccccc2C2=NCCN21 (centres unmarked) [Compound I-4]
- REM:NR ratios (effect) ([1]; 6 h after dosing at ZT12): decreased REM:NR ratios
- W consolidation (W bout duration, number of W bouts) ([1]; 6 h after dosing at ZT12): Compound I-4 at 3 mg/kg consolidated W
- body temperature (Tb) ([1]; 6 h after dosing at ZT12): No significant effects on Tb were found
- latency to REM (effect) ([1]; 6 h after dosing at ZT12): Compound I-4 at 3 mg/kg significantly (p<0.05) increased the latency to REM
- locomotor activity (LMA) ([1]; 6 h after dosing at ZT12): increased significantly overall
- total W or NREM time ([1]; 6 h after dosing at ZT12): without any significant effects on total W or NREM
- cataplexy (C) time ([1]; 6 h after dosing at ZT12): significantly (p<0.05) decreased following Compound I-4 at the two highest doses (1 and 3 mg/kg)
- REM time ([1]; 6 h after dosing at ZT12): significantly (p<0.05) decreased following Compound I-4 at the two highest doses (1 and 3 mg/kg)

Compound: C[C@H]1CNCCc2ccc(Cl)cc21 [lorcaserin, Lorcaserin hydrochloride, reference compound]
- Food Consumption, AVG (Long Evans rats; Lorcaserin 1 mg/kg subcutaneous): 14.6 grams
- Food Consumption (Long Evans rats; Lorcaserin 1 mg/kg subcutaneous, hydrochloride): 17.9 grams and 12.7 grams (2×) and 12.5 grams and 18 grams and 17.7 grams and 16.3 grams and 15.7 grams and 12.9 grams and 13.1 grams and 13.5 grams and 12 grams
- decrease of food intake vs vehicle (Long Evans rats; lorcaserin 1 mg/kg SC): 17.4%
- food intake (2 h feeding period) (Long Evans rats): 14.6 ± 0.7 g

Compound: OC1(c2ccc(Cl)cc2)c2ccccc2C2=NCCN21 (centres unmarked) [Compound A, 5-(4-chlorophenyl)-2,3-dihydroimidazo[1,2-b]isoindol-5-ol, reference compound]
- Relative transporter specific accumulation (OATP1B1; 3.00 μM nominal, E217βG, Table 119): 96.77 ± 2.48 % of control
- Relative transporter specific accumulation (OATP1B1; 30.00 μM nominal, E217βG, Table 119): 94.38 ± 2.14 % of control
- maximum inhibition of OATP1B1-mediated E217βG accumulation (OATP1B1; [2]): did not inhibit; also recorded: not an in vitro inhibitor
- Maximum % inhibition (OATP1B1): NIO
- inhibition at 3 μM (OATP1B1; human): 3%
- inhibition at 30 μM (OATP1B1; human): 6%

Compound: Clc1ccc(C2(OCC3OCCO3)c3ccccc3C3=NCCN32)cc1 (centres unmarked) [Compound I-19]
- Relative inhibition (OATP1B1; [3]): 0%
- Relative transporter specific accumulation (OATP1B1; [3]): 99.91 ± 3.20 % of control
- Transporter specific accumulation (OATP1B1; [3]): 2,252.33 ± 16.07 cpm
- Relative inhibition (OATP1B1; [4]): 3%
- Relative transporter specific accumulation (OATP1B1; [4]): 96.63 ± 3.76 % of control
- Transporter specific accumulation (OATP1B1; [4]): 2,178.33 ± 50.48 cpm
- Relative inhibition (OATP1B1; [5]): 25%
- Relative transporter specific accumulation (OATP1B1; [5]): 75.21 ± 2.39 % of control
- Transporter specific accumulation (OATP1B1; [5]): 2,303.00 ± 45.84 cpm
- Relative inhibition (OATP1B1; [6]): 23%
- Relative transporter specific accumulation (OATP1B1; [6]): 77.32 ± 2.52 % of control
- Transporter specific accumulation (OATP1B1; [6]): 1,743.00 ± 16.09 cpm
- Relative inhibition (OATP1B1; [7]): 50%
- Relative transporter specific accumulation (OATP1B1; [7]): 49.83 ± 2.48 % of control
- Transporter specific accumulation (OATP1B1; [7]): 1,123.33 ± 43.53 cpm
- Relative inhibition (OATP1B1; [8]): 87%
- Relative transporter specific accumulation (OATP1B1; [8]): 12.92 ± 0.41 % of control
- Transporter specific accumulation (OATP1B1; [8]): 395.67 ± 8.05 cpm
- Relative inhibition (OATP1B1; [9]): 83%
- Relative transporter specific accumulation (OATP1B1; [9]): 16.93 ± 0.58 % of control
- Transporter specific accumulation (OATP1B1; [9]): 381.67 ± 5.50 cpm
- maximum inhibition of OATP1B1-mediated E217βG accumulation (OATP1B1; [2]): 87%
- Maximum % inhibition (OATP1B1): 83%
- Relative inhibition (OATP1B1; [10]): 5%
- Relative transporter specific accumulation (OATP1B1; [10]): 95.49 ± 3.39 % of control
- Transporter specific accumulation (OATP1B1; [10]): 2,152.67 ± 36.09 cpm
- maximum inhibition of OATP1B1-mediated E217βG accumulation (OATP1B1; follow-up assay): 83%
- IC50 (OATP1B1; follow-up assay, NSB-corrected concentrations): 31.4 µM
- Food Consumption, AVG (Long Evans rats; 0.1 mg/kg intraperitoneal): 17.8 grams
- Food Consumption (Long Evans rats; 0.1 mg/kg intraperitoneal): 22.2 grams and 13.4 grams and 17.8 grams and 18.2 grams and 19.4 grams (2×) and 20.7 grams and 18 grams and 15.7 grams and 14.5 grams and 14.1 grams and 19.7 grams
- Food Consumption, AVG (Long Evans rats; 0.3 mg/kg intraperitoneal): 17.2 grams
- Food Consumption (Long Evans rats; 0.3 mg/kg intraperitoneal): 22.1 grams and 15 grams and 18.8 grams and 15.4 grams and 19 grams and 18.2 grams and 18.1 grams and 15.8 grams and 17.8 grams and 14.9 grams and 14.5 grams and 16.5 grams
- Food Consumption, AVG (Long Evans rats; 1 mg/kg intraperitoneal): 15.8 grams
- Food Consumption (Long Evans rats; 1 mg/kg intraperitoneal): 18.7 grams and 13.2 grams and 17.8 grams and 15.8 grams and 19.3 grams and 17.7 grams and 13.4 grams and 14 grams and 14.9 grams (2×) and 13.8 grams and 16.3 grams
- decrease of food intake vs vehicle (Long Evans rats; 3 mg/kg Compound I-19 IP): 10.6%
- Food Consumption, AVG (Long Evans rats; 3 mg/kg intraperitoneal): 15.9 grams
- Food Consumption (Long Evans rats; 3 mg/kg intraperitoneal): 19 grams and 14.1 grams and 18.3 grams and 14 grams and 17.7 grams and 16.6 grams and 16.3 grams and 14.8 grams and 15.5 grams and 15 grams and 13.1 grams and 16.8 grams
- effect on food intake (Long Evans rats; acute, 0.1, 0.3, 1, 3 mg/kg IP): significantly decreased food intake at 1 and 3 mg/kg
- food intake (2 h feeding period) (Long Evans rats): 15.9 ± 0.5 g
- body temperature (Tb) ([1]; 6 h after dosing at ZT12): No significant effects
- locomotor activity (LMA) ([1]; 6 h after dosing at ZT12): No significant effects
- total W or NREM time ([1]; 6 h after dosing at ZT12): No significant effects on total W or NREM were observed
- cataplexy (C) time ([1]; 6 h after dosing at ZT12): Total C time significantly decreased following all three concentrations
- REM time ([1]; 6 h after dosing at ZT12): REM time significantly decreased following Compound I-19 at the two highest doses (1 and 3 mg/kg)
- REM:NR ratio ([1]; Compound I-19 1 mg/kg i.p.): ~0.2
- latency to REM ([1]; Compound I-19 1 mg/kg i.p.): ~275 min
- REM:NR ratio ([1]; Compound I-19 3 mg/kg i.p.): ~0.1
- latency to REM ([1]; Compound I-19 3 mg/kg i.p.): ~325 min
- cataplexy (C), hourly, cumulative and total time [1, 11]: significantly less following the high concentration of Compound I-19 (3 mg/kg)
- time in W, NREM or REM [1, 11]: not different from Veh
